The numbers were not newly measured in patent US20110052690A1, “PROCESS FOR MANUFACTURE OF A MEDICAMENT WITH GRANULATION AND PAN COATING” (priority 2008, published 2011), which cites them from elsewhere.

The conditions of the series: plural daily dosing regime, compressed tablets.

Structures can show the parent of a compound that is named as a salt.

Consider `COc1ccc(C(CN(C)C)C2(O)CCCCC2)cc1` (centres unmarked) [venlafaxine hydrochloride, 1-[(2-dimethylamino)-1-(4-methoxyphenyl)ethyl] cyclohexanol], for which the patients experiencing nausea entry is given as “about forty five” and the “patients in whom vomiting occurs” value is reported as “about seventeen”.
